Patent publication US8748575B2, “Therapeutic peptides” (Combimab, Inc., priority 2010, dated 2014)
Read-outs that look alike come from different tables or passages of the source. Residues, ends and D or L forms follow the SMILES beside them.

Experiments:
[1] = 12 weeks treatment period; cited from earlier work
[2] = cited from earlier work
[3] = cited from earlier work; remark: listed apart in the source
[4] = Mouse intestinal secretion assay (suckling mouse assay); assay type: in vivo; parameters: key to Mouse intestinal secretion assay (suckling mouse): 1+ (lowest activity/potency); ++: Results are graded from 1+ (lowest activity/potency) to 5+ (highest activity/potency); +++: Results are graded from 1+ (lowest activity/potency) to 5+ (highest activity/potency); ++++: Results are graded from 1+ (lowest activity/potency) to 5+ (highest activity/potency); +++++: 5+ (highest activity/potency); details: for Mouse intestinal secretion assay (suckling mouse): graded activity/potency
Experimental: A relevant disease model is the suckling mouse model in which STa (5-18) is deposited into the stomach of 3-4 day old mice, and the accumulation of fluid in their intestines is determined gravimetrically (Parkinson et al., 1994). All GCC peptides were formulated to the desired concentration in Dulbecco's PBS (1×, No Ca++, no Mg++) containing […] immediately prior to dosing. Proteinase inhibitors were prepared as stock solutions in PBS and added to dosing solutions by serial dilution, as needed. The dosing solution (50 μL) was delivered into the stomachs of 2-4 day old mice (3 per dosing group) using a plastic tube attached to the needle of a 1 mL tuberculin syringe. After 3 hours, the animals were sacrificed and dissected to determine the individual weights of the intestines and the rest of the carcass, respectively.

[5] = Stability in rat intestinal fluid (Kessler 2008, 2009); assay type: in vitro ADME; details: ileal vs duodenal fluid
Experimental: According to the present invention, there are additional reasons why the distal jejunum, ileum, cecum and proximal colon are the preferred targets for a GCCR agonist. […] ST peptides are stable in the stomach but are rapidly degraded in the upper intestine. […] However, linaclotide is degraded rapidly in the duodenum. In intestinal fluids from both mouse, rat and humans the peptide loses its C-terminal tyrosine and forms an active metabolite. The half life for linaclotide is 3 minutes in rat intestinal fluid and 1 minute in human intestinal fluid. This metabolite is also rapidly degraded, first by reductases and then by proteases. The half life for the metabolite is about 5 minutes in rat intestinal fluid, and 3 minutes in human intestinal fluid. It is not detectable after 60 minutes in rat intestinal fluid, and after 18 minutes in human intestinal fluid (Kessler et al., 2009; Kessler et al., 2008). Thus, if released in the stomach or duodenum, an ST peptide analogue such as linaclotide will be active only in the duodenum. It is likely that an uroguanylin analogue such as plecanatide is degraded even more rapidly and therefore has an even shorter activity time.
This correlates with the free thiol concentrations in these locations and the activity of the Glutathione Reductase/Glutareduxin system activities in these locations.

[6] = human intestinal fluid; cited from earlier work
GCC [7] = details: GCC expressed in the jejunum and cecum of the calf; cited from earlier work
GCC [8] = target: T1, GCC (Homo sapiens, UniProt P25092); details: read-out: affinity for the interaction with GCC, cited from earlier work
T1 construct: human small intestine (n=20) and colon (n=24) specimens; host or cells: human small intestine and colon specimens
T1 sequence (P25092 24-1073): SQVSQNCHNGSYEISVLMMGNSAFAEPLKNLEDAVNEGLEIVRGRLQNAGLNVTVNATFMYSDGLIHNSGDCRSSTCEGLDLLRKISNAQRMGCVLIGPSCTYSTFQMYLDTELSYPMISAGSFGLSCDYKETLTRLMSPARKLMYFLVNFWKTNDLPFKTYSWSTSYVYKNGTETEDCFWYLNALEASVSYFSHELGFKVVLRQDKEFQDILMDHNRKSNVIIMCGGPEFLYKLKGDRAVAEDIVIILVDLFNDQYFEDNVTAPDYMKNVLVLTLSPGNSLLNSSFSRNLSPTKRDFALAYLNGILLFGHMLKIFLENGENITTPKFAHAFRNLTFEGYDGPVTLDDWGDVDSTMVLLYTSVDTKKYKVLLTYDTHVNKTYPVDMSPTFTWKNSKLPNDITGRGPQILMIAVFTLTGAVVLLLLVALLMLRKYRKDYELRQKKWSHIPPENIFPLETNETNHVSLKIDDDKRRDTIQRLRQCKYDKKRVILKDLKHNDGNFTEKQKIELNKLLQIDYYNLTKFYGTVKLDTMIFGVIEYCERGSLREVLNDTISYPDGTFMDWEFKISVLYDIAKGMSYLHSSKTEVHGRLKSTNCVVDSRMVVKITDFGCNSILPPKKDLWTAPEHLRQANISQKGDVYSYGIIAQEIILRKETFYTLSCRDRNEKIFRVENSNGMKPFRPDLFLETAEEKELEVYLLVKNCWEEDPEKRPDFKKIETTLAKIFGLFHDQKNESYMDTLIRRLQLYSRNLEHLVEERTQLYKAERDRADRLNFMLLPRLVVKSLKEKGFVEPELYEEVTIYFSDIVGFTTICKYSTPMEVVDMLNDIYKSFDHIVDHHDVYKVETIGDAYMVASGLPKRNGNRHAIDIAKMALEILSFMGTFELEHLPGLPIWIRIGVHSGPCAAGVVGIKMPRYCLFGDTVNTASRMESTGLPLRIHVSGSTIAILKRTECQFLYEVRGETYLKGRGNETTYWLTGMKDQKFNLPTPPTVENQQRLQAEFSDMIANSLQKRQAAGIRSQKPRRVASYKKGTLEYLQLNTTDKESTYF

GCC [9] = target: T2, GCC (Rattus norvegicus, UniProt P23897); parameters: ligated intestinal loops from Sprague Dawley and Wistar rats; host or cells: rat jejunal and ileal loops in vivo; details: ileum relative to jejunum; cited from earlier work
T2 sequence (P23897 23-1072): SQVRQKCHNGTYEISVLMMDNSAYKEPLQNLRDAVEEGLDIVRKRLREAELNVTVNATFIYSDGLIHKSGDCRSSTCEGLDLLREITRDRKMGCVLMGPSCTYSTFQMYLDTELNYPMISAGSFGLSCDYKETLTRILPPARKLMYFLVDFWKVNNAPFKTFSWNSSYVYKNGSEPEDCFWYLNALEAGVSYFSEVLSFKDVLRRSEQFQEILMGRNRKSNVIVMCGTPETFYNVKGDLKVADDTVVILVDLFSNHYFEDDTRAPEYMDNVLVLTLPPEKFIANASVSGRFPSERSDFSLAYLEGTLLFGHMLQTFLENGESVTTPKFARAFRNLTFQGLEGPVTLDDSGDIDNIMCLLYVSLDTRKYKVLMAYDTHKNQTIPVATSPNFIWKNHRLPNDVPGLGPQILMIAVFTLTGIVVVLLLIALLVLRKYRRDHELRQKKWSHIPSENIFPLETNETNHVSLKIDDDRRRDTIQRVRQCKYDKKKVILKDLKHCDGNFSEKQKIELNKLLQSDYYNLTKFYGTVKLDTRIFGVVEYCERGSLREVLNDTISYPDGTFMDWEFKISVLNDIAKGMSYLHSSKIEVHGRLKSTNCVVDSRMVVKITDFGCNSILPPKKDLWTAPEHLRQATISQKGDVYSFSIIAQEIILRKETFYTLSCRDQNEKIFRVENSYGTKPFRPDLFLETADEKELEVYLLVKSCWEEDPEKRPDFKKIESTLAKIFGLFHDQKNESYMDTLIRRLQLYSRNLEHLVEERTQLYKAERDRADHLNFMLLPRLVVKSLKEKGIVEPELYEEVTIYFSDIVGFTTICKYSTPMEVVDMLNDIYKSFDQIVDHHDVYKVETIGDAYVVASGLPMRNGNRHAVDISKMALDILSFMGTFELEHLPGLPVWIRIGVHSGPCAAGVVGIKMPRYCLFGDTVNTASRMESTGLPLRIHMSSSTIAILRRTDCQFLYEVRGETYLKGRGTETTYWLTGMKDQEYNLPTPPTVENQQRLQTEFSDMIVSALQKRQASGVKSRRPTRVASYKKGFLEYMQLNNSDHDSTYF

GCC [10] = target: T2, GCC; parameters: GCC expressed in the duodenum, cecum and colon; host or cells: intestinal tissue (duodenum, cecum, colon); details: GCC expressed in the duodenum, cecum and colon; read-out: affinity (Ki) for GCC; cited from earlier work

C[C@@H]1NC(=O)[C@@H]2CCCN2C(=O)[C@H](CC(N)=O)NC(=O)[C@@H]2CSSC[C@H](N)C(=O)N[C@H]3CSSC[C@H](NC1=O)C(=O)N[C@@H]([C@@H](C)O)C(=O)NCC(=O)N[C@H](C(=O)N[C@@H](Cc1ccc(O)cc1)C(=O)O)CSSC[C@H](NC(=O)[C@H](Cc1ccc(O)cc1)NC(=O)[C@H](CCC(=O)O)NC3=O)C(=O)N2 [Linaclotide, H2N Cys Cys Glu Tyr Cys Cys Asn Pro Ala Cys Thr Gly Cys Tyr COOH] (HELM PEPTIDE1{C.C.E.Y.C.C.N.P.A.C.T.G.C.Y}$PEPTIDE1,PEPTIDE1,1:R3-6:R3|PEPTIDE1,PEPTIDE1,2:R3-10:R3|PEPTIDE1,PEPTIDE1,5:R3-13:R3$$$V2.0)
patients achieving primary efficacy endpoint (three or more CSBMs per week and increase of at least one CSBM per week over baseline for at least nine of 12 weeks) [1]: 21%
stable in simulated gastric fluid for [2]: up to 3 hours
half life ([3]; rat duodenal fluid): about 0.44 minutes
half life ([3]; rat ileal fluid): about 30 minutes
half life ([3]; rat intestinal fluid): 3 min
half life ([3]; rat jejunal fluid): 0.36 min
activity in the mouse intestinal secretion assay ([4]; FIG. 26, compared to STa): lower activity
Mouse intestinal secretion assay (suckling mouse) [4]: +++
more stable in ileal intestinal fluid compared to the duodenum [5]: up to 100 ×
half life [6]: 1 min

H2N Asn Thr Phe Tyr Cys Cys Glu Leu Cys Cys Asn Pro Ala Cys Ala Gly Cys Tyr COOH [STa(1-18)]
decrease in the affinity for its receptor (GCC [7]): 2 log
Ki (GCC [8]; human colon specimens (n=24)): 1.2 nM
Ki (GCC [8]; human small intestine specimens (n=20)): 1.9 nM
Mouse intestinal secretion assay (suckling mouse) [4]: ++++
duration of response in intestinal loops (GCC [9]): significantly longer duration of response in the Ileum relative to the jejunum
Ki (GCC [10]): 1 to 4 nM
